Measured values published in patent US20150353495A1 (PORTOLA PHARMACEUTICALS, INC., priority 2010, published 2015).

Tests used:
Assay type in all cases: biochemical
JAK2 = molecular target: T1, JAK2 (Homo sapiens, UniProt O60674); test: Z'-LYTE kinase assay JAK2
T1 construct: 5 μl of catalytic domain recombinant Kinase enzyme+Tyr peptide substrate (Invitrogen, CA); purchased Invitrogen
Procedure, shortened: (§1)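 Read-out is FRET fluorescence between coumarin and fluorescein on a Tyr6 peptide, lost when the development protease cleaves unphosphorylated substrate. Kinase reaction used recombinant catalytic domain with ATP, 1 h at room temperature, 1% DMSO.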

JAK3 = molecular target: T2, JAK3 (Homo sapiens, UniProt P52333); test: Z'-LYTE kinase assay JAK3
T2 construct: 5 μl of catalytic domain recombinant Kinase enzyme+Tyr peptide substrate (Invitrogen, CA); purchased Invitrogen
T2 sequence (P52333 822-1111 limits assumed): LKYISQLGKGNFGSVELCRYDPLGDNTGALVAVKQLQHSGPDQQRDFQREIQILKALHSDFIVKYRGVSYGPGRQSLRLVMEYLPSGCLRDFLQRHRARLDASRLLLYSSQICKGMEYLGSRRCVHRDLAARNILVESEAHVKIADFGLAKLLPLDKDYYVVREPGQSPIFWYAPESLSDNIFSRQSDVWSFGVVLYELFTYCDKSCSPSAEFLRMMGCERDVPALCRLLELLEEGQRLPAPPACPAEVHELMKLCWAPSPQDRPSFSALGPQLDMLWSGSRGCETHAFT
Procedure, shortened: as §1

TYK2 = molecular target: T3, TYK2 (Homo sapiens, UniProt P29597); test: Z'-LYTE kinase assay TYK2
T3 construct: 5 μl of catalytic domain recombinant Kinase enzyme+Tyr peptide substrate (Invitrogen, CA); purchased Invitrogen
T3 sequence (P29597 897-1176 limits assumed): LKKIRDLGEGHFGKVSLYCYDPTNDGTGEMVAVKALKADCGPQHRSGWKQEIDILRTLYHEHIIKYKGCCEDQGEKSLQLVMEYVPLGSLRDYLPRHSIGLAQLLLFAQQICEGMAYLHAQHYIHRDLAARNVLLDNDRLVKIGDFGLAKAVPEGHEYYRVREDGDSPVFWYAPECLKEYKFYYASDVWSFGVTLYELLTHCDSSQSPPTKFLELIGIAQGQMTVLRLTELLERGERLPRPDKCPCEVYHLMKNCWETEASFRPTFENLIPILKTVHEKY
Protocol: JAK and TYK2 tyrosine phosphorylation activity is measured using the Z′-LYTE™ Technology developed by Invitrogen Corporation (Carlsbad, Calif.). For JAK1, JAK2 and JAK3 the Z′-LYTE™ Kinase Assay Kit-Tyr6 Peptide (part number PV4122) was used. For TYK2 the Z′-LYTE™ Kinase Assay Kit-Tyr6 Peptide (part number PV3192) was used. The Z′-LYTE™ biochemical assay employs a fluorescence resonance energy transfer (FRET) coupled-enzyme format and is based on the differential sensitivity of phosphorylated and non-phosphorylated peptides to proteolitic cleavage. The assay uses a synthetic peptide substrate that is labelled with a donor fluorophore (coumarin) and an acceptor fluorophore (fluorescein) that make up a FRET pair. In the primary reaction (the Kinase Reaction), the kinase transfers the γ-phosphate of ATP to a single tyrosine residue on the substrate, while the presence of a kinase inhibitor in the primary reaction suppresses phosphorylation. In the secondary reaction (the Development Reaction), a site-specific protease (the Development Reagent) is added. The development buffer quenches the Kinase Reaction, while the protease recognizes and cleaves non-phosphorylated Z′-LYTE™ peptide substrate. Cleavage disrupts FRET between the donor and acceptor fluorophores on the non-phosphoryleted substrate, while uncleaved, phosphorylated substrate maintains FRET.
To test the ability of candidate molecules to inhibit JAK tyrosine phosphorylation activity, molecules are reconstituted in 100% DMSO and serially diluted 1:10 in polypropylene v-bottom microtiter plates. The candidate molecules are then diluted 1:25 into kinase buffer and 2.5 μl transferred into duplicate wells of a 384 well low volume black microtiter assay plate (Corning, USA). The final DMSO concentration in the assay is 1%. The kinase reaction contains 2.5 μl of a candidate molecule, 5 μl of catalytic domain recombinant Kinase enzyme+Tyr peptide substrate (Invitrogen, CA) and 2.5 μl ATP (Invitrogen, CA). The kinase reaction is allowed to procede for 1 hour at room temperature. The protease reaction is initiated by the addition of 5 μl Development Reagent (Invitrogen, CA). After 1 hour incubation at room temperature the fluorescence is measured using a FlexStation plate reader (Molecular Devices, Sunnyvale, Calif.). The reader settings used are as follows: Fluorescence mode, endpoint, top read, excitation 400 nm, emission 445 nm and 520 nm, Auto Cutoff 435 nm and 515 nm, PMT sensitivity high, 6 reads per well Inhibition of JAK kinase activity is calculated as the percent phosphorylation of substrate in the presence of inhibitor compared to the percent phosphorylation of substrate in the absence of inhibitor. IC50's were derived using Xlfit 4.3 (IDBS, UK), 4 parameter logistic model 205: Y=(A+4B-A)/(1+((C/x)AD)))).

JAK1 = molecular target: T4, JAK1 (Homo sapiens, UniProt P23458); test: Z'-LYTE kinase assay JAK1
T4 construct: 5 μl of catalytic domain recombinant Kinase enzyme+Tyr peptide substrate (Invitrogen, CA); purchased Invitrogen
T4 sequence (P23458 875-1153 limits assumed): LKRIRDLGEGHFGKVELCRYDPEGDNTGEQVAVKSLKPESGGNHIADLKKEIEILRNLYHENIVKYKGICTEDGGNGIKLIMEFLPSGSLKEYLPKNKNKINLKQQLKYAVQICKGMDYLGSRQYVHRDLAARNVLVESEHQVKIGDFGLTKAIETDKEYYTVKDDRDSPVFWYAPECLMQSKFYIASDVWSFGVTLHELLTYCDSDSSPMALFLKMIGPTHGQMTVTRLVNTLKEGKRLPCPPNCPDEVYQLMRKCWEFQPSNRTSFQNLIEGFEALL
Procedure, shortened: as §1

T1 sequence (O60674 849-1124 limits assumed): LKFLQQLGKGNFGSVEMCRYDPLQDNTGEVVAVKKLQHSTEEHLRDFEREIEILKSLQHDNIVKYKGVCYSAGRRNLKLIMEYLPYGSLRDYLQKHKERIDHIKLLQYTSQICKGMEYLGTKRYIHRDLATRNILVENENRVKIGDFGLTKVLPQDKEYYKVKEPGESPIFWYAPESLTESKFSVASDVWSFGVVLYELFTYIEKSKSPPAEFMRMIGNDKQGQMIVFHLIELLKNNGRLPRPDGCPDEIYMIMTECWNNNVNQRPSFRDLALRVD

Row | Compound | IC50 (JAK2) [nM] | IC50 (JAK3) [nM] | IC50 (TYK2) [nM] | IC50 (JAK1) [nM]
1 | CCC(=O)N1CCC(c2ccc(Nc3cc(NCC4(O)CCCC4)c(C(N)=O)cn3)cc2)CC1 [Example 193, 4-((1-hydroxycyclopentyl)methylamino)-6-(4-(1-propionylpiperidin-4-yl)phenylamino)nicotinamide] | 100 to 1000 | 10 to 100 | 100 to 1000 | > 1000
2 | CC(=O)Nc1cccc(Nc2cc(NCc3cccs3)c(C(N)=O)cn2)c1 [Example 222, 6-(3-acetamidophenylamino)-4-(thiophen-2-ylmethylamino)nicotinamide] | 100 to 1000 | 1 to 10 | 10 to 100 | 100 to 1000
3 | NC(=O)c1cc(F)c(Nc2cccc(-n3nccn3)c2)nc1NC1CCCC1 [Example 22, 6-(3-(2H-1,2,3-triazol-2-yl)phenylamino)-2-(cyclopentylamino)-5-fluoronicotinamide] | > 1000 | 100 to 1000 | > 1000 | > 1000
4 | C[C@@H](Nc1nc(Nc2ccc(OCCN3CCCC3)cc2)c(F)cc1C(N)=O)c1ccccc1 [Example 27, (R)-5-fluoro-2-(1-phenylethylamino)-6-(4-(2-(pyrrolidin-1-yl)ethoxy)phenylamino)nicotinamide] | > 1000 | > 1000 | > 1000 | > 1000
5 | CCC(=O)N1CCC(c2ccc(Nc3cc(NCc4cccc(F)c4F)c(C(N)=O)cn3)cc2)CC1 [Example 196, 4-(2,3-difluorobenzylamino)-6-(4-(1-propionylpiperidin-4-yl)phenylamino)nicotinamide] | 10 to 100 | 1 to 10 | 100 to 1000 | 100 to 1000
6 | CC(=O)Nc1cccc(Nc2nc(NC3CCCC3)c(C(N)=O)cc2F)c1 [Example 18, 6-(3-acetamidophenylamino)-2-(cyclopentylamino)-5-fluoronicotinamide] | > 1000 | > 1000 | 100 to 1000 | > 1000
7 | CC(=O)Nc1cccc(Nc2nc(N)c(C(N)=O)cc2F)c1 [Example 21, 6-(3-acetamidophenylamino)-2-amino-5-fluoronicotinamide] | > 1000 | > 1000 | > 1000 | > 1000
8 | CC(=O)Nc1cccc(Nc2nc(NCc3ccccc3)c(C(N)=O)cc2F)c1 [Example 19, 6-(3-acetamidophenylamino)-2-(benzylamino)-5-fluoronicotinamide] | > 1000 | > 1000 | > 1000 | > 1000
9 | NC(=O)c1cc(F)c(Nc2ccc(OCCN3CCCC3)cc2)nc1NC1CCCC1 [Example 25, 2-(cyclopentylamino)-5-fluoro-6-(4-(2-(pyrrolidin-1-yl)ethoxy)phenylamino)nicotinamide] | > 1000 | > 1000 | > 1000 | > 1000
10 | CC(=O)Nc1cccc(Nc2nc(N[C@H](C)c3ccccc3)c(C(N)=O)cc2F)c1 [Example 20, (R)-6-(3-acetamidophenylamino)-5-fluoro-2-(1-phenylethylamino)nicotinamide] | > 1000 | > 1000 | > 1000 | > 1000
11 | CCC(=O)N1CCC(c2ccc(Nc3cc(NCc4cncc(F)c4)c(C(N)=O)cn3)cc2)CC1 [Example 188, 4-((5-fluoropyridin-3-yl)methylamino)-6-(4-(1-propionylpiperidin-4-yl)phenylamino)nicotinamide] | 10 to 100 | 1 to 10 | 100 to 1000 | 100 to 1000
12 | Cc1cccc(Nc2cc(Nc3ccc(OCCN4CCCC4)cc3)ncc2C(N)=O)c1 [Example 14, 4-(3-toluidino)-6-(4-(2-(pyrrolidin-1-yl)ethoxy)phenylamino)nicotinamide] | 100 to 1000 | 100 to 1000 | 100 to 1000 | > 1000
13 | CCC(=O)N1CCC(c2ccc(Nc3cc(NCc4cc(F)ccc4F)c(C(N)=O)cn3)cc2)CC1 [Example 149, 4-(2,5-difluorobenzylamino)-6-(4-(1-propionylpiperidin-4-yl)phenylamino)nicotinamide] | 10 to 100 | 1 to 10 | 100 to 1000 | 100 to 1000

Continued, values first:

Row | IC50 (JAK2) [nM] | IC50 (JAK3) [nM] | IC50 (TYK2) [nM] | IC50 (JAK1) [nM] | Compound
14 | 10 to 100 | 1 to 10 | 100 to 1000 | 100 to 1000 | Cc1cc(Nc2cc(NCc3ccccc3)c(C(N)=O)cn2)ccc1C(=O)N(C)CCO [Example 452]
15 | 100 to 1000 | 10 to 100 | 10 to 100 | 100 to 1000 | CC(=O)N1CCN(c2ccc(Nc3cc(NCC(C)C)c(C(N)=O)cn3)cc2)CC1 [Example 235, 6-(4-(4-acetylpiperazin-1-yl)phenylamino)-4-(isobutylamino)nicotinamide]
16 | 100 to 1000 | 10 to 100 | 10 to 100 | 100 to 1000 | CC(=O)N1CCN(c2ccc(Nc3cc(NC4CCCC4)c(C(N)=O)cn3)cc2)CC1 [Example 239, 6-(4-(4-acetylpiperazin-1-yl)phenylamino)-4-(cyclopentylamino)nicotinamide]
17 | 10 to 100 | 1 to 10 | 10 to 100 | 100 to 1000 | Cc1cc(Nc2cc(NCc3ccccc3)c(C(N)=O)cn2)ccc1C(=O)N1CCC1 [Example 448, 6-(4-(azetidine-1-carbonyl)-3-methylphenylamino)-4-(benzylamino)nicotinamide]
18 | 10 to 100 | 1 to 10 | 100 to 1000 | 100 to 1000 | Cc1cc(Nc2cc(NCc3ccccc3)c(C(N)=O)cn2)ccc1C(=O)N1CCCC1 [Example 446, 4-(benzylamino)-6-(3-methyl-4-(pyrrolidine-1-carbonyl)phenylamino)nicotinamide]
19 | 100 to 1000 | 10 to 100 | 10 to 100 | 100 to 1000 | CC(=O)N1CCN(c2ccc(Nc3cc(NCC4CCC4)c(C(N)=O)cn3)cc2)CC1 [Example 243, 6-(4-(4-acetylpiperazin-1-yl)phenylamino)-4-(cyclobutylmethylamino)nicotinamide]
20 | 10 to 100 | 1 to 10 | 100 to 1000 | 100 to 1000 | Cc1cc(Nc2cc(NCc3ccccc3)c(C(N)=O)cn2)ccc1C(=O)N(C)C [Example 438, 4-(benzylamino)-6-(4-(dimethylcarbamoyl)-3-methylphenylamino)nicotinamide]
21 | 10 to 100 | 1 to 10 | 100 to 1000 | 100 to 1000 | Cc1cc(Nc2cc(NCc3ccccc3)c(C(N)=O)cn2)ccc1C(=O)N1CC=CC1 [Example 451, 4-(benzylamino)-6-(4-(2,5-dihydro-1H-pyrrole-1-carbonyl)-3-methylphenylamino)nicotinamide]
22 | 100 to 1000 | 10 to 100 | > 1000 | > 1000 | CC(=O)N1CCN(c2ccc(Nc3cc(NCc4ccc5c(c4)OCO5)c(C(N)=O)cn3)cc2)CC1 [Example 254, 6-(4-(4-acetylpiperazin-1-yl)phenylamino)-4-(benzo[d][1,3]dioxol-5-ylmethylamino)nicotinamide]
23 | 100 to 1000 | 10 to 100 | > 1000 | > 1000 | NC(=O)c1cnc(Nc2cccc(OCCN3CCCC3)c2)cc1NC1(c2ccccc2)CC1 [Example 363, 4-(1-phenylcyclopropylamino)-6-(3-(2-(pyrrolidin-1-yl)ethoxy)phenylamino)nicotinamide]
24 | 10 to 100 | 1 to 10 | 100 to 1000 | 100 to 1000 | Cc1cc(Nc2cc(NCc3cncc(F)c3)c(C(N)=O)cn2)ccc1C(=O)N(C)C [Example 297]
